Measured values published in patent publication US20240228465A1, “SUBSTITUTED PYRIDINE N-OXIDE DERIVATIVES USEFUL AS A FACTOR XIA INHIBITORS” (Janssen Pharmaceutica NV, priority 2021, published 2024).
Like-named read-outs stand apart in the source and are kept apart here.

Assays:
Factor XIa = Factor XIa (Homo sapiens, UniProt P03951); assay: Factor XIa inhibition assay utilizing a fluorophore-quencher pair peptide substrate (FLINT); format: biochemical; conditions: read-out: FXIa (KIN) IC50
Text: Biological Example 1: Factor XIa Inhibition Assay Utilizing a Fluorophore-Quencher Pair Peptide Substrate
A fluorescence intensity (FLINT) based assay was used to monitor inhibition of Factor XIa. The peptide substrate, 5Fam-KLTRAETV-K5Tamra (purchased from New England Peptide) was chosen based on the […]. Conversion of zymogen […]. The custom peptide used in this assay was based on the Arg146 cleavage site of FXI. The peptide substrate was designed with a fluorophore-quencher pair, where the fluorescence is quenched until FXIa cleaves the 8-mer peptide after the Arg residue. The substrate KM was fit to a substrate inhibition model whereby kcat=0.86 s^−1, KM=12.4 μM, Ki=61.6 μM with an enzymatic efficiency, and kcat/KM=69523 M^−1s^−1.
The Factor XIa FLINT assay was used with the following 5Fam-KLTRAETV-K5Tamra assay buffer: 50 mM Tris, pH 7.5, 100 mM NaCl, 5 mM CaCl2, 0.1 mg/mL BSA, 0.03% CHAPS. Assay buffer was prepared by mixing all ingredients fresh. 5Fam-KLTRAETV-K5Tamra peptide substrate was first prepared at 10 mM in 100% DMSO, then diluted to 3 mM in 100% DMSO. Assay buffer was then added directly to the 3 mM stock of substrate to prepare the 30 μM 2× working concentration (15 μM final concentration). The 2× Factor XIa stock solution was prepared by diluting 6.562 μM stock in 1× assay buffer for a […].
Test compound(s) were run in an 11-point, 3-fold serial dilution with a final top compound concentration of 100 nM. Final DMSO in assay was 2%. FXIa was preincubated with compound for 30-minutes and then substrate was added to initiate the reaction. The assay was run with either end point (EP) reads at 30 min or kinetic (KIN) reads at 5 min intervals over 30 minutes. The time course was linear using 100 μM FXIa greater than 30 minutes. More specifically, the assay was run as follows: • 100 nL of 0.01 mM test compound was dispensed into black 384-well non-binding Greiner BioOne 784900 plate for 0.1 μM final concentration; • 5 μL of 1× assay buffer was dispensed to column 24 (low control) and 5 μL 2× Factor XIa solution was dispensed to columns 1-23 (column 23 high control); • the plate was centrifuged with a “cover” plate at 500 rpm for 1 min • the plate was pre-incubated for 30 minutes at room temperature with plate covered; • 5 μL of 2× 5Fam-KLTRAETV-K5Tamra peptide substrate was dispensed into the entire plate, columns 1-24; • the plate was centrifuged with a “cover” plate at 500 rpm for 1 min; • the plate was read monitoring fluorescence intensity on the BMG PHERAStar at room temperature, using fluorescence module 485 nm/520 nm.
(§1) Percent inhibition (IC50) curves were generated per compound tested, and data was analyzed using a 4-parameter logistic fit using GeneData Screener. The relative fluorescence unit (RFU) values were normalized to percent inhibition using the following equation:
[formula] • where LC—low control=mean signal of no Factor XIa or 100% inhibition of Factor XIa; HC—high control=mean signal of Factor XIa+5Fam-KLTRAETV-K5Tamra peptide substrate with DMSO only.
(§2) An 11-point dose response curve for the test compound(s) was generated using GENDATA to determine IC50 value based on the following equation:
(§3) [formula] • where Y is the % inhibition in the presence of X inhibitor concentration, Top=high control=mean signal of Factor XIa+5Fam-KLTRAETV-K5Tamra peptide substrate with DMSO only; Bottom=low control—mean signal of no Factor XIa or 100% inhibition of Factor XIa; HillSlope—Hill coefficient; and IC50=concentration of compound with 50% inhibition in relation to top/high control.
Representative compounds of formula (I) of the present invention were tested according to the procedure described in Biological Example 1 and Biological Example 2 above, with results as listed in Table 3, below. […]

human plasma kallikrein = human plasma kallikrein (Homo sapiens, UniProt P03952); assay: Kallikrein inhibition assay utilizing a quenched AMC peptide substrate (FLINT); format: biochemical; conditions: read-out: Kallikrein (KIN) IC50
Chain of human plasma kallikrein (P03952 391-638 limits assumed): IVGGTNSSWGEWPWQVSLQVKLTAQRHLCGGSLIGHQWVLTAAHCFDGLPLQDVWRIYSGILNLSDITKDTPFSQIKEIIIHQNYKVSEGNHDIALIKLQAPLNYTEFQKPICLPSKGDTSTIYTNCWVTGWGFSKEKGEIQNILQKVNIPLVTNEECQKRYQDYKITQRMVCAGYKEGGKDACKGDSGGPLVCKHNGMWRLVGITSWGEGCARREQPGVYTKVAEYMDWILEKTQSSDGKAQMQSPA
Chain of human plasma kallikrein (P03952 20-390 partner limits assumed): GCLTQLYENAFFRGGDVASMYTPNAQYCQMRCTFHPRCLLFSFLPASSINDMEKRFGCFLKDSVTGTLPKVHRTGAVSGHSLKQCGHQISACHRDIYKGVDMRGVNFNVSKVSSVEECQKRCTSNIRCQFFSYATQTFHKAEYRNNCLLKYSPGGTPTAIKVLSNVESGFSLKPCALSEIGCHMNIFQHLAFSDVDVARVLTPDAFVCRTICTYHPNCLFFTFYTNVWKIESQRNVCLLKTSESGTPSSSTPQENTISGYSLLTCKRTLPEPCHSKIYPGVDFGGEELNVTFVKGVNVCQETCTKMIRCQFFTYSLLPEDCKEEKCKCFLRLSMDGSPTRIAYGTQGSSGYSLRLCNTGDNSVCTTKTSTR
Description: Biological Example 2: Kallikrein Inhibition Assay Utilizing a Quenched AMC Peptide Substrate
A fluorescence intensity (FLINT) based assay was used to monitor inhibition of human plasma kallikrein. The peptide substrate, Z-Gly-Pro-Arg-AMC (Purchased from Bachem; Catalog #I-1150) was chosen based on its relatively low KM for kallikrein which enables running the assay at lower substrate concentrations to control background fluorescence. The kinetic parameters for this substrate were determined by fitting titration data to the Michaelis-Menten equation yielding a KM=40 μm, kcat=0.76 s^−1, and kcat/KM=18932 M^−1s^−1.
The Kallikrein FLINT assay was used with the following Z-Gly-Pro-Arg-AMC assay buffer: 50 mM Tris, pH 7.5, 100 mM NaCl, 5 mM CaCl2, 0.1 mg/mL BSA, 0.03% CHAPS. Assay buffer was prepared by mixing all ingredients fresh. 2× Z-Gly-Pro-Arg-AMC peptide substrate was prepared by diluting 10 mM stock into 1× assay buffer for a 100 μM working concentration (50 μM final concentration). The 2× kallikrein stock solution was prepared by diluting 14.76 μM stock in 1× assay buffer for a 4 nM working stock solution (2 nM final concentration).
Test compound(s) were run in an 11-point, 3-fold serial dilution with a final top compound concentration of 1 μM. Final DMSO in assay was 2%. Plasma kallikrein was pre-incubated for 30-minute with compound and then 50 μM substrate was added to initiate the reaction. The assay was run with either end point (EP) reads at 30 min or kinetic (KIN) reads at 5 min intervals over 30 minutes. The time course was linear using 2 nM kallikrein greater than 30 minutes. More specifically, the assay was run as follows: • 100 nL of 0.1 mM test compound was dispensed into black 384-well non-binding Greiner BioOne 784900 plate for 1 μM final concentration; • 5 μL of 1× assay buffer was dispensed to columns 24 (low control) and 5 μL 2× human kallikrein enzyme solution was dispensed to columns 1-23 (column 23 high control); • the plate was centrifuged with a “cover” plate at 500 rpm for 1 min • the plate was pre-incubated for 30 minutes at room temperature with plate covered; • 5 μL of 2× Z-Gly-Pro-Arg-AMC peptide substrate was dispensed into the entire plate, columns 1-24; • the plate was centrifuged with a “cover” plate at 500 rpm for 1 min; • the plate was read monitoring fluorescence intensity on the BMG PHERAStar at room temperature, using fluorescence module 340 nm/440 nm.
as §1
% inhibition=((HC−LC)−(compound−LC)/(HC−LC))*100 • where LC—low control=mean signal of human kallikrein enzyme or 100% inhibition of human kallikrein enzyme; HC—high control=mean signal of Factor XIa+Z-Gly-Pro-Arg-AMC peptide substrate with DMSO only.
as §2
as §3, with “Y=Bottom+(Top−Bottom)/(1+10^((log IC50−X)*HillSlope))” for “[formula]”, “human kallikrein enzyme+Z-Gly-Pro-Arg-AMC” for “Factor XIa+5Fam-KLTRAETV-K5Tamra”, “human kallikrein enzyme” for “Factor XIa”, “human kallikrein enzyme;” for “Factor XIa;”
Representative compounds of formula (I) of the present invention were tested according to the procedure described in Biological Example 1 and Biological Example 2 above, with results as listed in Table 3, below. Results listed in the (ER) column were measured using endpoint reads where a single fluorescence reading was measured for each well at a 30 min timepoint. […]

[1] = kinetic reads at 5 min intervals over 30 min, 30 min preincubation

Chain of Factor XIa (P03951 388-625 limits assumed): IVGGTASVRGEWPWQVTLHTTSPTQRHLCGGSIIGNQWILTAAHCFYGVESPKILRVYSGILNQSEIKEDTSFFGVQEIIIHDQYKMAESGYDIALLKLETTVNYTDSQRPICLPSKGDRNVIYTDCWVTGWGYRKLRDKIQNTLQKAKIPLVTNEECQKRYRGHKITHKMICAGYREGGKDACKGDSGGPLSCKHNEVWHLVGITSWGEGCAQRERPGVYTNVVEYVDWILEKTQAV
Chain of Factor XIa (P03951 19-387 partner limits assumed): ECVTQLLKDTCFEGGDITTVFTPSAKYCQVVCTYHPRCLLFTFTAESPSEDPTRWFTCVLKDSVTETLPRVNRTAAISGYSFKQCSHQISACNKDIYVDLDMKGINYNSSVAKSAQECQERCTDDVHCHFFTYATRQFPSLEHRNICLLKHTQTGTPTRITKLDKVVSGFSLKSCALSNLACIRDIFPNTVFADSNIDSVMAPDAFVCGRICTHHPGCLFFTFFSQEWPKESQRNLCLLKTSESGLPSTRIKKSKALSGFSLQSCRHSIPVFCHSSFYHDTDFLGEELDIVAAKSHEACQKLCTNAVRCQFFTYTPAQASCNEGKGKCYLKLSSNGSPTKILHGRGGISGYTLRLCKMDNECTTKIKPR

Row | SMILES | IC50 (Factor XIa; kinetic reads, unit μM printed in the cell) | IC50 (human plasma kallikrein; kinetic reads, unit μM) | IC50 (Factor XIa; [1]) | IC50 (human plasma kallikrein; [1])
1 | [O-][n+]1cc(-c2c(-n3cc(C(F)(F)F)nn3)ccc(Cl)c2F)ccc1[C@H](CCOC(F)F)n1cnc(-c2ncnn2C(F)F)c1 [M6, (S)-5-(3-Chloro-2-fluoro-6-(4-(trifluoromethyl)-1H-1,2,3-triazol-1-yl)phenyl)-2-(3-(difluoromethoxy)-1-(4-(1-(difluoromethyl)-1H-1,2,4-triazol-5-yl)-1H-imidazol-1-yl)propyl)pyridine 1-oxide] | > 10 µM | > 10 µM |  | 
2 | [O-][n+]1cc(-c2c(-n3cnnn3)ccc(Cl)c2F)ccc1[C@@H](CCOC(F)F)n1cnc(-c2cnnn2C(F)F)c1 [M14, (R)-5-(3-Chloro-2-fluoro-6-(1H-tetrazol-1-yl)phenyl)-2-(3-(difluoromethoxy)-1-(4-(1-(difluoromethyl)-1H-1,2,3-triazol-5-yl)-1H-imidazol-1-yl)propyl)pyridine 1-oxide] |  |  | 0.0005 µM | 0.029 µM
